Data from patent publication US20100035932A1, “NOVEL FORMYL PEPTIDE RECEPTOR LIKE 1 AGONISTS THAT INDUCE MACROPHAGE TUMOR NECROSIS FACTOR ALPHA AND COMPUTATIONAL STRUCTURE-ACTIVITY RELATIONSHIP ANALYSIS OF THEREOF” (priority 2008, published 2010).
Where two headings read alike, the source gives them in different places.

Assays:
J774.A1 macrophages [1] = assay: TNF-α production in J774.A1 macrophages (ELISA); format: cell-based, murine; details: for fold induction at 50 µM: Mus musculus, J774.A1, 24 h, relative fold of activation compared to vehicle (DMSO) control for 50 μM compound, N.A. = no activity was observed, read-out: TNF-α production
FPRL1 = molecular target: T1, FPRL1 (Homo sapiens, UniProt P25090); assay: Ca2+ mobilization in RBL-FPRL1 cells; format: cell-based
T1 construct: expressed in transfected cells; host or cells: rat basophilic leukemia RBL-2H3 cells (RBL-FPRL1)
T1 sequence (P25090 1-351): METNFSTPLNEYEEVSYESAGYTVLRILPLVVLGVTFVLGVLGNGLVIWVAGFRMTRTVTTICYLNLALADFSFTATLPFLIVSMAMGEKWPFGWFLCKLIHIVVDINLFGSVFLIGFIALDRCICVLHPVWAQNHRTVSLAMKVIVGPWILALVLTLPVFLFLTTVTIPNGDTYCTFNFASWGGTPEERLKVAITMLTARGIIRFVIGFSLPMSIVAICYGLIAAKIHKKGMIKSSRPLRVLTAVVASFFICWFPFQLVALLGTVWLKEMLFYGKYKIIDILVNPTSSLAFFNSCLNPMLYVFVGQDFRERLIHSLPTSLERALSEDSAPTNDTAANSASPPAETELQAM

human neutrophils [2] = assay: Chemotaxis assay, human neutrophils; format: cell-based; details: percent of response induced by 50 nM IL-8
murine neutrophils = assay: Chemotaxis assay, murine neutrophils; format: cell-based; details: percent of response induced by 50 nM KC
human neutrophils [3] = assay: ROS production in human neutrophils (L-012 luminescence); format: cell-based; details: Neutrophil, concentration that enhanced ROS production by 50% above background, read-out: ROS Production AC50, Human PMN
Experimental: J774.A1 macrophages were plated at density of 1.5×10^5 cells/well in wells of 96-well flat-bottom white microtiter plates (Corning Incorporated, Costar). After 16 hr (5% CO2, 37° C.), the media was aspirated, and test compounds or vehicle (final DMSO concentration of 1%) were added in fresh media (DMEM without phenol red, supplemented with 3% (v/v) FBS). After 5 min, the media was replaced by HBSS+ containing 4 μM L-012 and 8 μg/ml HRP, and luminescence was monitored for 120 min (2-min intervals) at 37° C. using a Fluoroscan Ascent FL microtiter plate reader (Thermo Electron, Waltham, Mass.). The curve of light intensity (in relative luminescence units) was plotted against time, and the area under the curve was calculated as total luminescence. The percent activation of ROS was calculated as follows: % activation=(sample-DMSO control)/DMSO control×100. The minimal compound concentration that enhanced ROS production by 50% above background control cells (AC50) was determined by graphing the % activation of ROS vs. log [test compound]. Each curve was determined using five to seven compound concentrations. Human neutrophils were plated at density of 5×10^5 cells/well in wells of 96-well flatbottom white microtiter plates, and compounds under investigation or vehicle (final DMSO concentration of 1%) were added. After 5 min, the media was replaced by HBSS+ containing […] L-012, and luminescence was monitored for 120 min (2-min intervals) at 37° C. using a Fluoroscan Ascent FL microtiter plate reader. The results were analysed as described above to determine % activation and AC50 values.

J774.A1 macrophages [4] = assay: ROS production in J774.A1 macrophages (L-012 luminescence); format: cell-based; details: Mus musculus, concentration that enhanced ROS production by 50% above background, read-out: ROS Production AC50, Murine Mφ
Experimental: (§1) Murine macrophage J774.A1 cells were cultured in DMEM supplemented with 10% (v/v) heat-inactivated fetal bovine serum (FBS), 10 mM HEPES, 100 μg/ml streptomycin, and 100 U/ml penicillin. Cells were grown to confluence in sterile tissue culture flasks and gently detached by scraping. Human monocyte/macrophage MonoMac6 cells (DSMZ, Germany) were cultured in RPMI 1640 supplemented with 10% (v/v) FBS, 10 μg/ml bovine insulin, 100 μg/ml streptomycin, and 100 U/ml penicillin. Rat basophilic leukemia (RBL-2H3) cells transfected with human FPR (RBL-FPR) or FPRL1 (RBL-FPRL1) were cultured in DMEM supplemented with 20% (v/v) FBS, 10 mM HEPES, 100 μg/ml streptomycin, and 100 U/ml penicillin, as described previously (Nanamori et al., 2004). Human monocytic THP-1 cells were cultured in RPMI 1640 medium supplemented with 10% (v/v) FBS, 100 μg/ml streptomycin, and 100 U/ml penicillin. All cell cultures were grown at 37° C. in a humidified atmosphere containing 5% CO2. Cell number and viability were assessed microscopically using trypan blue exclusion.
J774.A1 macrophages were plated at density of 1.5×10^5 cells/well in wells of 96-well flat-bottom white microtiter plates (Corning Incorporated, Costar). […] After 5 min, the media was replaced by HBSS+ containing 4 μM L-012 and 8 μg/ml HRP, and luminescence was monitored for 120 min (2-min intervals) at 37° C. using a Fluoroscan Ascent FL microtiter plate reader (Thermo Electron, Waltham, Mass.). The curve of light intensity (in relative luminescence units) was plotted against time, and the area under the curve was calculated as total luminescence. The percent activation of ROS was calculated as follows: % activation=(sample-DMSO control)/DMSO control×100. The minimal compound concentration that enhanced ROS production by 50% above background control cells (AC50) was determined by graphing the % activation of ROS vs. log [test compound]. Each curve was determined using five to seven compound concentrations. […] The results were analysed as described above to determine % activation and AC50 values.

J774.A1 macrophages [5] = assay: IL-6 production in J774.A1 macrophages (ELISA); format: cell-based, murine; details: J774.A1, 24 hr
Experimental: (§2) Cells were treated for 24 hr with DMSO control, test compound, or LPS and mouse TNF-α or IL-6 and human TNF-α enzyme-linked immunosorbent assay (ELISA) kits (BD Biosciences Pharmigen) were used to detect these cytokines in the cell supernatants. Cytokine concentration was determined by extrapolation from the TNF-α/IL-6 standard curve, according to the manufacturer's protocol.
(§3) For treatments, cells were plated in 96-well microtiter plates at 2×10^5 cells/well (J774.A1, MonoMac6) or 6×10^4 cells/well (human monocyte-derived macrophages) using their respective culture media, except FBS was reduced to 3% (v/v). After incubation overnight (5% CO2, 37° C.), the media were removed and replaced with fresh media containing test compounds.

J774.A1 cells = assay: Cytotoxicity assay (CellTiter-Glo); format: cell-based, murine; details: J774.A1, 24 hr
Experimental: Cytotoxicity was analyzed with a CellTiter-Glo Luminescent Cell Viability Assay Kit (Promega, Inc., Madison, Wis.), according to the manufacturer's protocol. Briefly, J774.A1 cells were cultured at a density of 3×10^4 cells/well with the test compounds for 24 hr at 37° C. and 5% CO2, substrate was added, and luminescence signal in the samples was analyzed with a Fluoroscan Ascent FL.

[6] = test system: murine peritoneal macrophages; assay: TNF-α production in murine peritoneal macrophages (ELISA); format: cell-based; details: 24 hr, various concentrations
Experimental: Bone marrow leukocytes were flushed from tibias and femurs of BALB/c mice with HBSS− supplemented with 0.1% BSA and 1% glucose and the neutrophils were purified on Percoll density gradients, as previously described (Schepetkin et al., 2007). Peritoneal macrophages were isolated from BALB/c mice 4 days after intraperitoneal injection of 1 ml saline containing 100 μg concanavalin A, as described previously (Schepetkin et al., 2005). Peritoneal exudate cells were suspended in RPMI 1640 containing 10% (v/v) FBS with antibiotics (penicillin and streptomycin) and incubated at 37° C. in 100 mm tissue culture dishes for 1 h. Adherent peritoneal macrophages were harvested and cultured with the compounds under investigation for 24 hr at 37° C. and 5% CO2.
as §2

[7] = test system: human monocytic cells THP-1; assay: TNF-α production in THP-1 cells (ELISA); format: cell-based; details: 24 hr, various concentrations
Experimental: as §1, with “All cell cultures were grown at 37° C. in a humidified atmosphere containing 5% CO2.” left out
as §2

[8] = test system: human MonoMac6 macrophages; assay: TNF-α production in MonoMac6 cells (ELISA); format: cell-based; details: 24 hr, various concentrations
[9] = test system: human monocyte-derived macrophages; assay: TNF-α production in human monocyte-derived macrophages (ELISA); format: cell-based; details: 24 hr, various concentrations
Experimental: as §2, §3

J774.A1 macrophages [10] = assay: cells; details: Mus musculus, J774.A1, read-out: Ca2+ Mobilization EC50, Murine Mφ
Experimental: Murine macrophage J774.A1 cells were cultured in DMEM supplemented with 10% (v/v) heat-inactivated fetal bovine serum (FBS), 10 mM HEPES, 100 μg/ml streptomycin, and 100 U/ml penicillin. Cells were grown to confluence in sterile tissue culture flasks and gently detached by scraping. […] All cell cultures were grown at 37° C. in a humidified atmosphere containing 5% CO2. Cell number and viability were assessed microscopically using trypan blue exclusion.

human neutrophils [11] = assay: Ca2+ mobilization in human neutrophils (FLIPR Calcium 3); details: Neutrophil
human FPR = molecular target: T2, human FPR (Homo sapiens, UniProt P21462); assay: Ca2+ mobilization in RBL-FPR cells; format: cell-based
T2 construct: expressed in transfected cells; host or cells: rat basophilic leukemia RBL-2H3 cells (RBL-FPR)
T2 sequence (P21462 1-350): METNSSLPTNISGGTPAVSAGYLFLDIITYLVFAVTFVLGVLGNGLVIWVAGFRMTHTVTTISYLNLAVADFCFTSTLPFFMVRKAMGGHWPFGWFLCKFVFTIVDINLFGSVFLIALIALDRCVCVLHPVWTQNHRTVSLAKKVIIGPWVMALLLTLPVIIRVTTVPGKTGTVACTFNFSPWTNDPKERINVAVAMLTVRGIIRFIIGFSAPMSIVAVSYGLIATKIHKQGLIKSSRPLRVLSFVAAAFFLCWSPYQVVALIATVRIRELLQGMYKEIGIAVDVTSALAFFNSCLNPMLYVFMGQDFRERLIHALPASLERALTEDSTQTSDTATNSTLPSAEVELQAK

[12] = read-out: Ca2+ Mobilization EC50, Human PMN

O=C(N/N=C/c1ccc(-c2cccc(C(F)(F)F)c2)o1)c1ccc(F)cc1 [Compound 2, 4-fluoro-benzoic acid [5-(3-trifluoromethyl-phenyl)-2-furyl]methylene-hydrazide]
fold induction at 50 µM (J774.A1 macrophages [1]): 30 to 40
Effect of Boc-2 (FPR/FPRL1 antagonist) on compound-induced TNF-α production (J774.A1 macrophages [1]; pretreated 5 min with Boc 2 (40 μM), then 50 μM compound 24 hr): inhibited
Effect of WRW4 (FPRL1 antagonist) on compound-induced TNF-α production (J774.A1 macrophages [1]; pretreated 5 min with WRW4 (10 μM), then 50 μM compound 24 hr): inhibited
Effect of PTX on induced TNF-α production (J774.A1 macrophages [1]; pretreated 30 min with PTX (0.4 and 1 μg/ml), then Compound 50 μM or LPS 50 ng/ml for 12 hr): significantly inhibited
Effect of ActD or CHX on compound-induced TNF-α production (J774.A1 macrophages [1]; pretreated with ActD 1 μg/ml or CHX 5 μg/ml 30 min, then 50 μM compound 12 hr): completely inhibited
EC50 (FPRL1): 18.3 µM
Chemotaxis (%), Human PMN (human neutrophils [2]): 91.3 ± 1.6%
Chemotaxis (%), Murine PMN (murine neutrophils): 58.0 ± 1.4%
AC50 (human neutrophils [3]): 0.2 ± 0.04 µM
AC50 (J774.A1 macrophages [4]): 8.6 ± 2.7 µM
IL-6 production (J774.A1 macrophages [5]): induced secretion of IL-6
Effect on cell viability (J774.A1 cells): had no effect on cell viability
TNF-α production in murine peritoneal macrophages [6]: induced TNF-α production in a concentration-dependent manner
TNF-α production in THP-1 cells [7]: induced TNF-α production in a concentration-dependent manner
TNF-α production in MonoMac6 cells [8]: induced TNF-α production in a concentration-dependent manner
TNF-α production in human monocyte-derived macrophages [9]: induced TNF-α production in a concentration-dependent manner
EC50 (J774.A1 macrophages [10]): 2.3 ± 0.15 µM
EC50 (human neutrophils [11]; [12]): 0.6 ± 0.4 µM
EC50 (human neutrophils [11]; read-out: [Ca2+]i EC50): 0.6 µM

COc1cc(/C=N\NC(=O)c2ccc3c(c2)OCO3)ccc1OCc1ccccc1 [Compound 6]
fold induction at 50 µM (J774.A1 macrophages [1]): 5 to 8
TNF-α production, primary screening of agonists AG 1-26 (J774.A1 macrophages [1]; murine J774.A1 macrophages): induced modest levels of TNF-α production
EC50 (human FPR): 6.6 µM
Chemotaxis (%), Human PMN (human neutrophils [2]): 98.0 ± 3.4%
Chemotaxis (%), Murine PMN (murine neutrophils): 174.8 ± 9.2%
AC50 (human neutrophils [3]): 38.6 ± 3.3 µM
AC50 (J774.A1 macrophages [4]): 26.9 ± 3.9 µM
IL-6 production (J774.A1 macrophages [5]): failed to induce macrophage IL-6 production
EC50 (J774.A1 macrophages [10]): 4.2 ± 0.8 µM
EC50 (human neutrophils [11]; [12]): 0.63 ± 0.39 µM
EC50 (human neutrophils [11]; read-out: [Ca2+]i EC50): 0.63 µM
